# Laboratory results taken from paper PMC7395068, “The evolution of strategies to minimise the risk of human drug-induced liver injury (DILI) in drug discovery and development” (Archives of Toxicology, 2020).
# Experiments:
# [1] = test system: HepG2 C3A spheroid, BSEP, Glu/Gal in HepG2 cells, bioactivation; conditions: Bayesian modeling; ref Williams et al. 2019; cited from earlier work
# HepaRG spheroids = experiment: Combined HCI (HCS) and cellular ATP 3D assay in HepaRG spheroids
# [2] = test system: primary human hepatocytes, NIH3T3 fibroblasts, BSEP, CYP3A4; conditions: BSEP & Metabolism based; ref Schadt et al. 2015; cited from earlier work
# [3] = Chen et al. 2016 or literature alignment; ref Chen et al. 2016; cited from earlier work
# [4] = read-out: Human plasma Cmax; total plasma Cmax.tot, median of 9 literature references; cited from earlier work
# hLiMTs [5] = experiment: Combined HCI (HCS) and cellular ATP 3D assay in hLiMTs
# [6] = cited from earlier work
# hLiMTs [7] = conditions: hLiMTs, ATP, IC50 < 100 × Cmax.tot; ref Proctor et al. 2017; cited from earlier work
# [8] = test system: THLE or HepG2 cells, isolated mitochondria, BSEP; conditions: Modeled in vitro assays (cytotoxicity, mitochondrial dysfunction, BSEP); ref Aleo et al. 2019; cited from earlier work
# OATP1B1 = conditions: known substrates; cited from earlier work
# [9] = Plasma free fraction (fu) and unbound Cmax (Cmax,u); type: in vitro ADME, human; conditions: unbound plasma Cmax
# Procedure: The prediction of DILI severity was evaluated further using the 3D combined HCI assays using plasma-free fraction. The majority of fu values were obtained from literature, when unavailable in-house prediction was utilised. Unbound plasma Cmax concentrations (Cmax,u) were derived by multiplying total plasma Cmax with the corresponding free fraction (fu) for each compound.
# [10] = plasma free fraction; cited from earlier work
# [11] = HCS endpoints only, 25 × Cmax.tot cut-off
# [12] = Microtissue model structural based (HCI), combined HCS and ATP, MEC < 25 × Cmax.tot cut-off
structure (smiles),measurement,setting,value
Cc1cc2c(cc1CC(=O)c1sccc1S(=O)(=O)Nc1onc(C)c1Cl)OCO2 [sitaxsentan],"Bayesian Machine Learning DILI prediction, Williams (2019)",[1],+VE
same,"DILI prediction HepaRG spheroids, HCI alone",HepaRG spheroids; [11],positive
same,HepaRG <25x Avg Cmax ATP,"HepaRG spheroids; HepaRG, ATP endpoint, cut-off <25x Avg Cmax",-ve
same,HepaRG <100x Avg Cmaxu ATP,"HepaRG spheroids; HepaRG, ATP endpoint, cut-off <100x Avg Cmaxu",-ve
same,HepaRG <25x Avg Cmax HCS,"HepaRG spheroids; HepaRG, HCS endpoints, cut-off <25x Avg Cmax",+ve
same,HepaRG <100x Avg Cmaxu HCS,"HepaRG spheroids; HepaRG, HCS endpoints, cut-off <100x Avg Cmaxu",+ve (<100x Avg Cmaxu)
same,HepaRG <25x Avg Cmax All,"HepaRG spheroids; HepaRG, all endpoints (ATP and HCS), cut-off <25x Avg Cmax",+ve
same,HepaRG Cmax max All,"HepaRG spheroids; HepaRG, all endpoints, Cmax max used",+ve
same,HepaRG Cmax min All,"HepaRG spheroids; HepaRG, all endpoints, Cmax min used",+ve
same,HepaRG <10 uM All,"HepaRG spheroids; HepaRG, all endpoints, cut-off <10 uM",+ve (<10 uM)
same,HepaRG <100x Avg Cmaxu All,"HepaRG spheroids; HepaRG, all endpoints, cut-off <100x Avg Cmaxu",+ve (<100x Avg Cmaxu)
same,AC50,"HepaRG spheroids; Homo sapiens, HepaRG, read-out: HCS endpoint AC50",9.74 µM
same,minimal effective concentration,"HepaRG spheroids; Homo sapiens, HepaRG, read-out: HCS endpoint MEC",8.53 µM
same,DILI prediction HepaRG spheroids (HCS-MEC),HepaRG spheroids; [12],+VE (MEC < 25 × Cmax.tot cut-off)
same,"DILI in vitro assay prediction, Schadt (2015)",[2],+VE
same,Assigned DILI category,[3],3
same,Cmax,[4],25.3 µM
same,"DILI prediction hLiMTs, HCI alone",hLiMTs [5]; [11],detection
same,minimal effective concentration,"hLiMTs [5]; Homo sapiens, read-out: HCS endpoint MEC",130 µM
same,DILI prediction hLiMTs (HCS-MEC),hLiMTs [5]; [12],+VE (MEC < 25 × Cmax.tot cut-off)
same,"DILI prediction hLiMTs, ATP alone","hLiMTs [5]; cellular ATP only, 25 × Cmax.tot cut-off",unpredicted
same,hLiMTs <25x Avg Cmax ATP,"hLiMTs [5]; hLiMTs, ATP endpoint, cut-off <25x Avg Cmax",-ve
same,hLiMTs <100x Avg Cmaxu ATP,"hLiMTs [5]; hLiMTs, ATP endpoint, cut-off <100x Avg Cmaxu",-ve
same,hLiMTs <25x Avg Cmax HCS,"hLiMTs [5]; hLiMTs, HCS endpoints, cut-off <25x Avg Cmax",+ve
same,hLiMTs <100x Avg Cmaxu HCS,"hLiMTs [5]; hLiMTs, HCS endpoints, cut-off <100x Avg Cmaxu",-ve
same,hLiMTs <25x Avg Cmax All,"hLiMTs [5]; hLiMTs, all endpoints (ATP and HCS), cut-off <25x Avg Cmax",+ve
same,hLiMTs Cmax max All,"hLiMTs [5]; hLiMTs, all endpoints, Cmax max used",+ve
same,hLiMTs Cmax min All,"hLiMTs [5]; hLiMTs, all endpoints, Cmax min used",+ve
same,hLiMTs <10 uM All,"hLiMTs [5]; hLiMTs, all endpoints, cut-off <10 uM",-ve
same,hLiMTs <100x Avg Cmaxu All,"hLiMTs [5]; hLiMTs, all endpoints, cut-off <100x Avg Cmaxu",-ve
same,DILI severity category (Chen et al. [2016]),"[6]; LTKB DILIrank category, ref Chen et al. 2016",Most
same,DILI severity category (Chen 2016),"[6]; human DILI classification, LTKB DILIrank, ref Chen et al. 2016",Most
same,DILI severity category,"[6]; human DILI severity, ref Chen et al.",Most
same,"hLiMTs/100xCmax, Proctor (2017)",hLiMTs [7],+VE (IC50 < 100 × Cmax.tot)
same,"Partition Hybrid HRM Score ≥4, Aleo (2019)",[8],+VE (Partition Hybrid HRM Score ≥4)
same,"Partition Hybrid HRM Score ≥8, Aleo (2019)",[8],+VE (Partition Hybrid HRM Score ≥8)
same,"Rule of Two hybrid HRM Score ≥3, Aleo (2019)",[8],+VE (Rule of Two hybrid HRM Score ≥3)
same,"Rule of Two hybrid HRM Score ≥8, Aleo (2019)",[8],+VE (Rule of Two hybrid HRM Score ≥8)
same,substrate for hepatic uptake transporter OATP1B1,OATP1B1,known substrates
same,"Human plasma Cmax,u",[9],0.126 µM
same,fu,[10],0.005
